Assay results from US9765061B2, “Trail enhancers for the selective killing of cancer cells” (The Scripps Research Institute, priority 2013, dated 2017).

How the values were obtained:
sXBP1 (UPR) = experiment: sXBP1 generation in mouse lung after administration; assay type: in vivo; conditions: administration into mouse lung, FIG. 1F
Excerpt: FIG. 1: C12 induces the UPR in mammalian cells. (A and B). Comparison of the macrophage responsiveness to P. aeruginosa (P.a.), S. typhimurium (S.t), and S. aureus (S.a.). RT-PCR assay of XBP1 (A) and Western blot analysis (B) of p38, its phosphorylated form (p-p38) as well as phosphorylated forms of PERK (p-PERK) and eIF2α (p-eIF2α) in cell extracts after treatment with bacteria are shown. (C) Macrophages were stimulated with P. aeruginosa wild type (wt) or lasI mutant (ΔlasI), and cell extracts (total RNA or total protein) were prepared and analyzed as in (A and B). (D and E) RT-PCR assay of XBP1 or actin in total RNA prepared from macrophages after treatment with compound (C12), i.e., the (S)-enantiomer, or with the (R)-enantiomer (C12R), or the hydrolysis product (C12h) are shown. (F) Total RNA was prepared from lung of mice after inoculation of vehicle (-) or (C12) and analyzed in (D). (G) Chemical structures of compounds (C12), (C12R) and (C12h). Compound (C12) is the (S)-enaniiomer of the compound of formula: […]
Importantly, the similar requirements in the structural integrity of the lactone ring motif were also evident in response to other natural stereoisomer of the AHL family (Table 1). […]

[1] = test system: primary human hepatocytes; experiment: Viability and apoptosis of primary human hepatocytes from normal donors; assay type: cell-based; conditions: hepatocytes from normal donors
Procedure: FIG. 8: Safety and pro-apoptotic. activity of (C12). Cells were incubated with TRAIL, (C12), […] (Bor) or a combination of TRAIL and (C12) or Bor as indicated, and cell viability (top panels) or the cleavage of PARP (bottom panels) was determined. (A) Lung cancer cell line A549. (B) Primary human hepatocytes from normal donor.
Therefore, to assess a potential utility of C12 for anti-cancer therapy, we compared the effects of these two compounds—(C12) and bartezomid (Bor)—on TRAIL-mediated apoptosis in cancerous A549 cells and primary human hepatocytes.
Cancer and normal cell culture. Lung cancer cell line A549 and colon cancer cell line HT29 were purchased from ATCC. Breast cancer cell line MDA-MB-468 was received from J. C. Reed (The Burnham Institute, La Jolla, Calif.). Cell lines were maintained in growth medium (GM): DMEM medium (4.5 g/l glucose) supplemented with 10% FBS (HyClone, Logan, Utah), L-glutamine, penicillin/streptomycin and nonessential ammo acids (Invitrogen, Carlsbad, Calif.). Normal human bronchial epithelial (NHBE) cells and normal human mammary epithelial (NHME) cells were obtained from Cambrex (East Rutherford, N.J.) and cultured as recommended by the manufacturer. Normal human colon smooth muscle cells were obtained from ScienCell Research Lab (San Diego, Calif.) and cultured as recommended by the manufacturer. Primary cultures of human hepatocytes (freshly plated; not cryopreserved) and culture medium were obtained from Celsis In Vitro Technologies (Baltimore, Md.). Upon receipt of the cells, the medium was gently aspirated from each well and replenished with InVitroGRO HI medium supplemented with Torpedo Antibiotic Mix (Celsis), and the plates were kept in a 5% CO2, at 37° C. in an incubator at saturating humidity. After 2-4 h, cells were stimulated as described in the text and FIG. legends.
(§1) Cytotoxicity was determined by using the XTT-based toxicology assay kit (Sigma, St. Louis, Miss.) in accordance with the manufacturer's instructions. For some experiments, to confirm the apoptotic nature of toxicity, cells were analyzed using protocols and instructions of the Annexin V-FITC apoptosis detection kit (Biovision, Mountain View, Calif.). In addition, caspase 3, 8 and 9 activities were determined by colorimetric assays (R&D System), and the data are expressed as fold increases compared to the values of untreated or control-treated cells (n=5).

cancer and normal cells = experiment: XTT-based viability of cancer and normal cells grown 18 h (FIG. 12); assay type: cell-based; conditions: TRAIL alone or the same doses of C12 without TRAIL
Procedure: FIG. 12. (C12) promotes the TRAIL-mediated killing of cancer cells, a), c) Western blot analysis of PARP cleavage in cancer or normal cells treated for 3 h with TRAIL, (C12) or a combination of both, as indicated, b), d) XTT-based assay monitoring the viability of cancer and normal cells grown for 18 h in media containing TRAIL and the indicated doses of (C12). Cell survival was ˜100% in control samples (untreated cells) as well as in samples incubated with TRAIL alone or the same doses of (C12) without TRAIL.
Cancer and normal cell culture. Lung cancer cell line A549 and colon cancer cell line HT29 were purchased from ATCC. Breast cancer cell line MDA-MB-468 was received from J. C. Reed (The Burnham Institute, La Jolla, Calif.). […]
as §1

CCCCCCCCCC(=O)CC(=O)N[C@H]1CCOC1=O [Compound 1, N-(3-oxo-dodecanoyl) homoserine lactone]
generation of sXBP1 in lung (sXBP1 (UPR)): resulted in the generation of sXBP1 | toxicity to human hepatocytes, compound alone or in combination with TRAIL [1]: practically healthy and intact | Cell survival (cancer and normal cells): ~100%
